Assay results taken from PMC6125430, “Structural Analysis of Redox-sensing Transcriptional Repressor Rex from Thermotoga maritima” (Scientific Reports, 2018).

Legend:
[1] = biological target: T1, TmRex (Thermotoga maritima, UniProt Q9WY16); assay: X-ray crystallography of the complex; format: binding; settings: 1:1 per C-terminal domain
T1 construct: gene rex1; full-length gene (pET28b NdeI/XhoI), N-terminal His6 tag (tag removal told only for SeMet protein), E. coli BL21(DE3) Star pLysS; homodimer; primers encode N-terminal MAEKIPK

[2] = biological target: the molecule itself; assay: crystal structure; apo TmRex, native protein, 2.0 Å; sitting-drop vapour diffusion at 296 K, 200 mM potassium chloride, 20% (w/v) PEG 3,350; four subunits (two homodimers) in the asymmetric unit

Molecule: NC(=O)C1=CN([C@@H]2O[C@H](COP(=O)(O)OP(=O)(O)OC[C@H]3O[C@@H](n4cnc5c(N)ncnc54)[C@H](O)[C@@H]3O)[C@@H](O)[C@H]2O)C=CC1 [NADH]
- X-ray crystallography of the complex ([1]; co-crystallization with 1 mM NADH, 2.45 A, closed form): NADH-bound TmRex crystals were grown by co-crystallization

Molecule: NC(=O)c1ccc[n+]([C@@H]2O[C@H](COP(=O)(O)OP(=O)(O)OC[C@H]3O[C@@H](n4cnc5c(N)ncnc54)[C@H](O)[C@@H]3O)[C@@H](O)[C@H]2O)c1 [NAD^+]
- X-ray crystallography of the complex ([1]; apo crystals soaked with 1 mM NAD+ for 10 h, 2.2 A, open form): The structure of NAD^+-bound TmRex was refined with crystallographic Rwork and Rfree values

B1: Redox-sensing transcriptional repressor Rex from Thermotoga maritima (natural protein, UniProt Q9WY16 1-208, looked up)
chain: MAEKIPKPVSKRLVSYYMCLERLLDEGVEVVSSEELARRLDLKASQIRKDLSYFGEFGKRGVGYNVEHLYDAIGEILGVKKEWKLVVVGAGNIGRAVANYTVMKEKGFRIIGIFDSDPSKIGKEAAPGLTVSDVSELEKFVEEHGVEIGVIAVPAEHAQEIAERLEKAGIKGILNFAPVKIKVSVPVENIDITASLRVLTFEIVRRNS
notes: Rex (TM0169) of Thermotoga maritima, rex gene amplified from genomic DNA with primers from the ATG start codon to the stop codon; residues 1-208 (N-terminal domain 1-77, linker loop 78-83, C-terminal domain 84-208); Cloned into pET28b(+) with NdeI and XhoI; for the native protein in the deposited structures no removal is told; also called TmRex; TM0169; source: E. coli BL21 (DE3) star pLysS, …
- binding result [2]: binds
